Structures are written as SMILES.

Experiment [1] has as its target Citron Rho-interacting kinase (Homo sapiens) (UniProt O14578). The conditions noted are these: at 10 µM.
The target of experiment [2] is Serine/threonine-protein kinase pim-1 (Homo sapiens, UniProt P11309). The conditions noted are these: at 10 µM.
For experiment [3], the system named is Mast/stem cell growth factor receptor Kit (Homo sapiens), P10721 [D816H]. Kind of experiment: (§1) Selectivity interaction (Ambit KINOMEscan and KiNATiv profiling in Jurkat cells) EUB0000090b KIT. Type of experiment: cell-based. The conditions noted are these: at 1 µM.
For experiment [4], the system named is Mast/stem cell growth factor receptor Kit (Homo sapiens), P10721 [L576P]. The experiment is described as §1. Type of experiment: cell-based. To be noted: at 1 µM.
Experiment [5] has as its system Mast/stem cell growth factor receptor Kit (Homo sapiens), P10721 [V559D]. The experiment is described as §1. Type of experiment: cell-based. The conditions noted are these: at 1 µM.
Experiment [6] concerns the target Mast/stem cell growth factor receptor Kit (Homo sapiens, UniProt P10721). The experiment is described as §1. It counts as cell-based. The conditions noted are these: at 1 µM.
In experiment [7] the test system is Mast/stem cell growth factor receptor Kit (Homo sapiens), P10721 [V559D,T670I]. The description is as §1. It counts as cell-based. The conditions noted are these: at 1 µM.
For experiment [8], the system named is Mast/stem cell growth factor receptor Kit (Homo sapiens), P10721 [V559D,V654A]. The description is as §1. Type of experiment: cell-based. The conditions noted are these: at 1 µM.
The test system of experiment [9] is Mast/stem cell growth factor receptor Kit (Homo sapiens), P10721 [A829P]. The experiment is described as §1. Type of experiment: cell-based. The conditions noted are these: at 1 µM.
Experiment [10] has as its system Mast/stem cell growth factor receptor Kit (Homo sapiens), P10721 [D816V]. The experiment is described as §1. Type of experiment: cell-based. The conditions noted are these: at 1 µM.
The target in experiment [11] is Tyrosine-protein kinase ABL1 (Homo sapiens, UniProt P00519). The conditions noted are these: at 10 µM.
Experiment [12] addresses Death-associated protein kinase 3 (Homo sapiens) (UniProt O43293). The conditions noted are these: at 10 µM.
A short description of experiment [13]: Selectivity interaction (KinomeScan (DiscoverX)) EUB0000045b PKNB.
The target of experiment [14] is Tyrosine-protein kinase Yes (Homo sapiens) (UniProt P07947). Kind of experiment: Selectivity interaction (KinomeScan (DiscoverX)) EUB0000607a YES1. The conditions noted are these: at 10 µM.
Experiment [15] deals with Epidermal growth factor receptor (Homo sapiens), P00533 [UNDEFINED MUTATION]. Kind of experiment: (§2) Selectivity interaction (KinomeScan (DiscoverX)) EUB0000607a EGFR. To be noted: at 10 µM.
The subject of experiment [16] is Epidermal growth factor receptor (Homo sapiens), P00533 [L858R,T790M]. The description is as §2. The conditions noted are these: at 10 µM.
For experiment [17], the target named is Epidermal growth factor receptor (Homo sapiens, UniProt P00533). The experiment is described as §2. To be noted: at 10 µM.
Experiment [18] deals with Epidermal growth factor receptor (Homo sapiens), P00533 [G719C]. Described as §2. The conditions noted are these: at 10 µM.
Experiment [19] deals with Epidermal growth factor receptor (Homo sapiens), P00533 [L858R]. Described as §2. To be noted: at 10 µM.
Chain of Epidermal growth factor receptor (Homo sapiens), P00533 [L858R] (P00533 whole entry L858R): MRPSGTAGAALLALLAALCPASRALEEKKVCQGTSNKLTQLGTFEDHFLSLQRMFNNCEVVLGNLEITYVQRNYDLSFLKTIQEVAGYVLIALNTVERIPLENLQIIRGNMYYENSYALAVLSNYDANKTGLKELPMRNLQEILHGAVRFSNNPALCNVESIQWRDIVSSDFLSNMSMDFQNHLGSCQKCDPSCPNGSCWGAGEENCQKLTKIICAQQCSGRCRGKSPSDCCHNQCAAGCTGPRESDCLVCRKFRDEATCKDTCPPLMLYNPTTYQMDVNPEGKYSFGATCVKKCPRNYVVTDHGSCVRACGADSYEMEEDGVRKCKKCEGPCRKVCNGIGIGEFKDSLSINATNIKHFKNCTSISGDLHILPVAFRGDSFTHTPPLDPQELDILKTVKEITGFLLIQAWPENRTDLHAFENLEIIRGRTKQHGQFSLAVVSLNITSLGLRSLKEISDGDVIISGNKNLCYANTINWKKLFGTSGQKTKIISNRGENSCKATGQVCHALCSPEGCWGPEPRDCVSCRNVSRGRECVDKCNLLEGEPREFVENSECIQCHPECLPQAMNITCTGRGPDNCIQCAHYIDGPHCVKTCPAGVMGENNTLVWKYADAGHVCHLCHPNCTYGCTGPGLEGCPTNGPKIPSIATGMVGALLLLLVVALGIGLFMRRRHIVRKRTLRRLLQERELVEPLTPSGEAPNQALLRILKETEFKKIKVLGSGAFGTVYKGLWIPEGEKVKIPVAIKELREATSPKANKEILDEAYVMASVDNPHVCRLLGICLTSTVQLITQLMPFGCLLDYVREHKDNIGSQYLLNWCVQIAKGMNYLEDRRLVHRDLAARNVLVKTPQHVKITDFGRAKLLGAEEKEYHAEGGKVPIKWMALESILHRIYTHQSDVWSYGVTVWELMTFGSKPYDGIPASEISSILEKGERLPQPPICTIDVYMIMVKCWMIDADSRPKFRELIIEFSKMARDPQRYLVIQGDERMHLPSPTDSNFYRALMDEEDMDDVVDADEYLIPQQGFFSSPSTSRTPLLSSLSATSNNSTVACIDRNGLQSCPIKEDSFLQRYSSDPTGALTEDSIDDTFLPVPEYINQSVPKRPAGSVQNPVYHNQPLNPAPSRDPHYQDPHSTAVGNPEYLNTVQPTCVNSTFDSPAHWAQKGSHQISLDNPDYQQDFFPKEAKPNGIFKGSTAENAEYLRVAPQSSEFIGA
Experiment [20] has as its system Epidermal growth factor receptor (Homo sapiens), P00533 [T790M]. The experiment is described as §2. The conditions noted are these: at 10 µM.
Experiment [21] has as its system Epidermal growth factor receptor (Homo sapiens), P00533 [L861Q]. Described as §2. The conditions noted are these: at 10 µM.
The subject of experiment [22] is Epidermal growth factor receptor (Homo sapiens), P00533 [G719S]. The experiment is described as §2. To be noted: at 10 µM.
The target in experiment [23] is Serine/threonine-protein kinase MARK2 (Homo sapiens) (UniProt Q7KZI7). Kind of experiment: Selectivity interaction (ActivX KiNativ screen (kinase selectivity in THP-1 cell lysates)) EUB0000639a MARK2. It counts as subcellular. The conditions noted are these: lysate, at 0.04 µM.
Chain of Serine/threonine-protein kinase MARK2 (Homo sapiens) (Q7KZI7 whole entry): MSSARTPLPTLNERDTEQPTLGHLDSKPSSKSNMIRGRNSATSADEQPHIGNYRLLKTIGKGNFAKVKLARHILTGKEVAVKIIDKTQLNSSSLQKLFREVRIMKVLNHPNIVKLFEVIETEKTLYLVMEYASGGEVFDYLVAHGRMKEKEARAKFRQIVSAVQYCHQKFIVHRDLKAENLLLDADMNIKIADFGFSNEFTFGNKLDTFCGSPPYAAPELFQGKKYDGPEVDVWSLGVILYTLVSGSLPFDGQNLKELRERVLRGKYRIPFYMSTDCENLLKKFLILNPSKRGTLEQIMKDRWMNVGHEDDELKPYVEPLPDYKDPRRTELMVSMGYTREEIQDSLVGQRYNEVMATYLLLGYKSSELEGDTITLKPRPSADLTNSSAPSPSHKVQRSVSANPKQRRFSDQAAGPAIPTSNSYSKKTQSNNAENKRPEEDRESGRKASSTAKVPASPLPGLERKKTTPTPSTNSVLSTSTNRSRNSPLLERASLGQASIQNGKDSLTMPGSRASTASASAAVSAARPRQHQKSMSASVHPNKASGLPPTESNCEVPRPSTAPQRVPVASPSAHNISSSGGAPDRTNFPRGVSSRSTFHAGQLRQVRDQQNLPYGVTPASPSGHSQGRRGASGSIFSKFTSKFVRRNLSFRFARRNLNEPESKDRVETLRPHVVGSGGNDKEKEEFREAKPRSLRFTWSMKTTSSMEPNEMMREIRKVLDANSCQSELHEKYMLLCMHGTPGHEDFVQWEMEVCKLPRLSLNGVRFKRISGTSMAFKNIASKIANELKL
In experiment [24] the target is Rho-associated protein kinase 2 (Homo sapiens, UniProt O75116). Kind of experiment: Selectivity interaction (KinomeScan (DiscoverX)) EUB0000229b ROCK2. The conditions noted are these: at 10 µM.
The target in experiment [25] is T1, Ephrin type-B receptor 4 (Homo sapiens) (UniProt P54760).
T1 sequence (whole entry): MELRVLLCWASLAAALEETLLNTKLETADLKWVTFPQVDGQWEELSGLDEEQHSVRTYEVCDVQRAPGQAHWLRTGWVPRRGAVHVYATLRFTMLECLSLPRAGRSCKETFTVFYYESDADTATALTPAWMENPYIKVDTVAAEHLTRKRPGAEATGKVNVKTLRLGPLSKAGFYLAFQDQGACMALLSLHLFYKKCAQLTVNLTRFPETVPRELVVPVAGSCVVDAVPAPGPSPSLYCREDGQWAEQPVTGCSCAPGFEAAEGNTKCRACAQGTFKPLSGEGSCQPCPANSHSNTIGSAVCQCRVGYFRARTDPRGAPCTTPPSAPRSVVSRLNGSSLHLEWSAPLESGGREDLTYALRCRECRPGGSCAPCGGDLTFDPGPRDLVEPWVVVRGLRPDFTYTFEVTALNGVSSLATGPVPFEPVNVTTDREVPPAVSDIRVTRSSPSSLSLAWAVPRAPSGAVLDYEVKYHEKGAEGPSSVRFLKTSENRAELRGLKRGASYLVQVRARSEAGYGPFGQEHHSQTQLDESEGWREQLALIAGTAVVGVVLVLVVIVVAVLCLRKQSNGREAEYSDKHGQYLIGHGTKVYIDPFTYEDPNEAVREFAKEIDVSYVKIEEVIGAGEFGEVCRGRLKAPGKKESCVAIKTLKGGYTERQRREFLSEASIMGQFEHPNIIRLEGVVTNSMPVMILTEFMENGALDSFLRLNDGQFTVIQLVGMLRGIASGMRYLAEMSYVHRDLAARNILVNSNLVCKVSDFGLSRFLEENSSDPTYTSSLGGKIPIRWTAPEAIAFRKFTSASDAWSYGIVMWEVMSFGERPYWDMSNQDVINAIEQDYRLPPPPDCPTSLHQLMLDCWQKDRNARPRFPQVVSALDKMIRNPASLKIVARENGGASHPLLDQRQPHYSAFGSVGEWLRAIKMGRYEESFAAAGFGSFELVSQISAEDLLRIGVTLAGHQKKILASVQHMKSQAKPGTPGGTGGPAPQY
Kind of experiment: Selectivity interaction (KinomeScan (DiscoverX)) EUB0000595a EPHB4. The conditions noted are these: at 10 µM.

Experiment [26] addresses Serine/threonine-protein kinase N2 (Homo sapiens, UniProt Q16513). To be noted: at 10 µM.
In experiment [27] the target is Tyrosine-protein kinase SYK (Homo sapiens, UniProt P43405). Kind of experiment: Selectivity interaction (ActivX KiNativ screen (ex vivo kinase selectivity in human PBMCs)) EUB0001619a SYK. Type of experiment: cell-based. To be noted: PBMC, at 1 µM.
For experiment [28], the target named is Tyrosine-protein kinase Fgr (Homo sapiens) (UniProt P09769). Kind of experiment: Selectivity interaction (ActivX KiNativ screen (ex vivo kinase selectivity in human PBMCs)) EUB0001619a FGR. The conditions noted are these: PBMC, at 1 µM. Type of experiment: cell-based.
The target in experiment [29] is Ribosomal protein S6 kinase alpha-1 (Homo sapiens, UniProt Q15418). Kind of experiment: Selectivity interaction (ActivX KiNativ screen (ex vivo kinase selectivity in human PBMCs)) EUB0001619a RPS6KA1. The conditions noted are these: PBMC, at 1 µM. It counts as cell-based.
The target in experiment [30] is Serine/threonine-protein kinase 24 (Homo sapiens) (UniProt Q9Y6E0). Kind of experiment: Selectivity interaction (Kinase panel (KiNativ target engagement assay in Jurkat cells)) EUB0001635a STK24. Type of experiment: cell-based. The conditions noted are these: Selectivity number of off-targets 0.0, Selectivity number of targets 233.0, Source Knowledge https://www.sciencedirect.com/science/article/pii/S2451945619300674?via%3Dihub, at 1 µM.
Chain of Serine/threonine-protein kinase 24 (Homo sapiens) (Q9Y6E0 whole entry, looked up): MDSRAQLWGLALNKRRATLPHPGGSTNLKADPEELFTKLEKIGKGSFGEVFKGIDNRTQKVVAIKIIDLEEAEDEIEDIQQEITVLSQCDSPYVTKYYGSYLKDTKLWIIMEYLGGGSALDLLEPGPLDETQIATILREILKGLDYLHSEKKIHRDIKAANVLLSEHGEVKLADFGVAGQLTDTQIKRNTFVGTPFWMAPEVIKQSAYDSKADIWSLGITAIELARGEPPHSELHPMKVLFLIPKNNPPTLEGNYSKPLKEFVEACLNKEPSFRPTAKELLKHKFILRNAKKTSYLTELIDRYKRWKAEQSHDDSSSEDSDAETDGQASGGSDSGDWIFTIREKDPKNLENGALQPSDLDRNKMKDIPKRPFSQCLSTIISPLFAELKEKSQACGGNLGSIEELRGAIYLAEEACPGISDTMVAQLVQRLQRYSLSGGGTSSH

The target in experiment [31] is Ribosomal protein S6 kinase alpha-6 (Homo sapiens, UniProt Q9UK32). Kind of experiment: Selectivity interaction (KinomeScan (DiscoverX)) EUB0000618a RPS6KA6. To be noted: at 10 µM.

Chain of Epidermal growth factor receptor (Homo sapiens), P00533 [L858R,T790M] (P00533 whole entry T790M/L858R, looked up): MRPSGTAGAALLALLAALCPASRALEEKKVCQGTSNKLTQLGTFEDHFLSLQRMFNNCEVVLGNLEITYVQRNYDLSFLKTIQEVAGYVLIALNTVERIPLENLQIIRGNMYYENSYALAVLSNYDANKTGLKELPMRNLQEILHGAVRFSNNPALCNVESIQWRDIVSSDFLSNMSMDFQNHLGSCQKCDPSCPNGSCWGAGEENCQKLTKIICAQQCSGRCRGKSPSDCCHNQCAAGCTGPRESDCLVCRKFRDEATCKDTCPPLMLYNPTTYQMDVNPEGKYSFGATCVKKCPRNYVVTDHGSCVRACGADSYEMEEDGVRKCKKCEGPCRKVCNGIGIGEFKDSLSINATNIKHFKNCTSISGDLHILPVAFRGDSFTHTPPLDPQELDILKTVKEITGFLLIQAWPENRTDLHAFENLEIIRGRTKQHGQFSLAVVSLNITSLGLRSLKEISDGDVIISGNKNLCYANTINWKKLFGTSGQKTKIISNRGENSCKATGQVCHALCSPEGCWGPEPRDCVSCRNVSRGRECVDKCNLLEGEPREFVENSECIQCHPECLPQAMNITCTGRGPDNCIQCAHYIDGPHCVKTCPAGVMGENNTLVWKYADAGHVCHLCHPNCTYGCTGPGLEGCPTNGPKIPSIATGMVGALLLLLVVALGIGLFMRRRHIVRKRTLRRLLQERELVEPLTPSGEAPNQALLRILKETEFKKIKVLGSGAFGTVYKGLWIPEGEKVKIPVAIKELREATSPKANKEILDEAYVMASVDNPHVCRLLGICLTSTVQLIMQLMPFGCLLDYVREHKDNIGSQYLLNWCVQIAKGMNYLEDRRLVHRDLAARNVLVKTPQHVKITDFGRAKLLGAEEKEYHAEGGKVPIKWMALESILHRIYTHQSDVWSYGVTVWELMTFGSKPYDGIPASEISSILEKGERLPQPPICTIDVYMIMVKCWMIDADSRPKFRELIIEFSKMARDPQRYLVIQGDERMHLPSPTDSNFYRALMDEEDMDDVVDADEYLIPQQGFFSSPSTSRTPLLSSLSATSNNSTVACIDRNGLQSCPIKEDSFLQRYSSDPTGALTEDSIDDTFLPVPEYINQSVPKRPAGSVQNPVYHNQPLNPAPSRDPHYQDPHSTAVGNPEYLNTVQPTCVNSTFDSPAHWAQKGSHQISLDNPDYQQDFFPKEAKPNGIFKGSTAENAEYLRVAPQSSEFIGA
Chain of Mast/stem cell growth factor receptor Kit (P10721 whole entry): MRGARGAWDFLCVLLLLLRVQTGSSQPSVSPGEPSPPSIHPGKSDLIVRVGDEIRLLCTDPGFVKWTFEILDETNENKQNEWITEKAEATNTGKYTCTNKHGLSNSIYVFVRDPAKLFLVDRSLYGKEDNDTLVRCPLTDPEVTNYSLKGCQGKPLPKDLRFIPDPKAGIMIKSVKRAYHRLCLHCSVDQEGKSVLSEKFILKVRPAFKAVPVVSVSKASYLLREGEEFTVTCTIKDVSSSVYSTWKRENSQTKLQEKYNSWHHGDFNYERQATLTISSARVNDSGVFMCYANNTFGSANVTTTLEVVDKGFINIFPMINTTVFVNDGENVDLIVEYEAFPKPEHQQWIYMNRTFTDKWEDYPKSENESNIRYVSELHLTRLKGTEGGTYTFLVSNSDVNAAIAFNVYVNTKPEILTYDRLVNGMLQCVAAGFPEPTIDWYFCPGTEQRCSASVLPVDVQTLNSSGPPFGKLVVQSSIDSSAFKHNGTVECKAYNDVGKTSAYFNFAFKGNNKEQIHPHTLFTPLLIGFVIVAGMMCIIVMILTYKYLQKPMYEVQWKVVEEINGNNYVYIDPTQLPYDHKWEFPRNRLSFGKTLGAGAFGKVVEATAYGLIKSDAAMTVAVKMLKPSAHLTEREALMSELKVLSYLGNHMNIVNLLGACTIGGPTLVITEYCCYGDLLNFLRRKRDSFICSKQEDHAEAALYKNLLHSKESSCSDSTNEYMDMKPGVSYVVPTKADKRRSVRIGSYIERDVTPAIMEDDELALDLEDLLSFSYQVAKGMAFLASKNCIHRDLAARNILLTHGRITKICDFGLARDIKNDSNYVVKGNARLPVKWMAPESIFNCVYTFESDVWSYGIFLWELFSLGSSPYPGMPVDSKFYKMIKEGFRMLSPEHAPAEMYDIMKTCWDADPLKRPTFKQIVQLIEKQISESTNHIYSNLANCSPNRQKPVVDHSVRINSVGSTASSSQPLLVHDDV
Chain of Serine/threonine-protein kinase pim-1 (P11309 whole entry, looked up): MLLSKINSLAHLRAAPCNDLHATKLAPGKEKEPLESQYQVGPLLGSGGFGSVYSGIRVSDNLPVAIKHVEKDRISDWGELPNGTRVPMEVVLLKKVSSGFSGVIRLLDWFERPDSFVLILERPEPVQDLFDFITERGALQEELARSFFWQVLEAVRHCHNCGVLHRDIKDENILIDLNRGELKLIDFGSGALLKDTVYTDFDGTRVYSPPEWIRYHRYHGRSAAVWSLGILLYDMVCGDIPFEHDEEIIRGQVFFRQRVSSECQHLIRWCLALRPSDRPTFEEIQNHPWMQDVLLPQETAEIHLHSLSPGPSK

For the molecule `Cc1cc([C@@H](C)Nc2ccccc2C(=O)O)c2nc(N3CCOCC3)cc(=O)n2c1` [AZD-6482], the % of control in experiment [1] was found to be 89%; in experiment [2], 100%.
Take `CN(C)C/C=C/C(=O)Nc1ccc(C(=O)N2CCCC(Nc3ncc(Cl)c(-c4c[nH]c5ccccc45)n3)C2)cc1` (configuration not stated): the % of control in experiment [3] worked out at 76%; in [4], 82%; in experiment [5], 82%; in [6], 93%; in experiment [7], 95%; in [8] it was 74%. The values for the % of control in experiment [9] and in [10] were 75% and 92%, respectively.
For `CCN(CC)CCCCNc1ncc2cc(-c3cc(OC)cc(OC)c3)c(NC(=O)NC(C)(C)C)nc2n1`, the % of control in [11] and in experiment [12] was 100% each time.
As for `C=CC(=O)Nc1cc(-n2c(=O)ccc3cnc4ccc(-c5ccc(NS(C)(=O)=O)cc5)cc4c32)ccc1C`, the % of control was determined as 41% in [13] (at 1 µM) and 90% in [13] (at 10 µM).
Turning to `CNC(=O)Nc1ccc(-c2nc(N3CC4CCC(C3)O4)c3cnn(C4CCC5(CC4)OCCO5)c3n2)cc1`, the % of control was found to be 97% in experiment [14]; 38% in experiment [15]; 100% in experiment [16]; 62% in experiment [17]; 80% in experiment [18]; 53% in experiment [19]. The results for the % of control in experiment [20], in [21] and in experiment [22] were 68%, 64% and 69%, respectively.
With `CC[C@@H]1[C@H](F)C(=O)N[C@@H]1COc1nccc2cc(C(N)=O)c(OC)cc12` [ZIMLOVISERTIB], in experiment [23], the % of inhibition was -13.3%.
The molecule `COc1cc(N(C)c2ccnc3ccc(C(F)(F)F)cc23)cc(OC)c1OC` showed a % binding in experiment [24] of 100%.
As to `COCC(=O)NC/C=C/c1ccc2ncnc(Nc3ccc(Oc4ccc(C)nc4)c(C)c3)c2c1` [CP-724714], the % of control in experiment [25] was determined as 95%; in experiment [26] it was 99%.
Consider `N#Cc1cccc(-c2c[nH]c3ncnc(N4CCOCC4)c23)c1`, for which the % of inhibition in experiment [27] worked out at 0%; in experiment [28], 2%; in [29], 13%.
With `C=CC(=O)Nc1ccc(C(=O)Nc2[nH]nc3c2CN(C(=O)N[C@H](CN(C)C)c2ccccc2)C3(C)C)cc1`, the % of engagement in experiment [30] turned out to be 41.8%.
Take `O[C@H]1CC[C@H](Nc2ncc3nc(Nc4c(F)cc(F)cc4F)n([C@H]4CCOC4)c3n2)CC1`: the % of control in experiment [31] turned out to be 13%.

The values are drawn from ChEMBL document CHEMBL5465560, “Selectivity Literature for EUbOPEN Chemogenomic Library” (2024).
